“Also recorded” adds a separate entry of the source.
Assays:
[1] = test system: AtGLRs (PR and LR elongation of seedlings); assay: Root elongation of seedlings on plates with the iGLR antagonist DNQX; type: in vivo, Arabidopsis thaliana
Experimental: A. Control, B. DNQX treated. Note the lack of LR in DNQX-treated seedlings (b) versus LR in DMSO control. Both plates contained 10 μM KNO3. DNQX is an inhibitor (antagonist) of animal iGLRs and plant GLRs. The lateral root in the DMSO control is indicated by an arrow.
Note glutamate is the natural binding chemical (ligand) to animal iGLRS and puataive ligand for plant GLRs.
The present invention describes the function for AtGLRs in N sensing, absorption (FIG. 3, Forde, B G. 2002. Annu. Rev. Plant Biol. 53:203), assimilation (FIG. 12), plant growth and development (FIG. 11, 13). These claims were validated with pharmacological (FIG. 6-9), physiological (FIG. 10, 11, 13) and immunobot analyses of N assimilatory enzymes (FIG. 12).
(§1) The genetic and physiological analyses described above were complemented with pharmacological studies where the functions of AtGLRs were inhibited with iGLR specific inhibitors/antagonists. […] L-Glu is the bioactive ligand for iGLRs. […] Thus the inhibitors of AtGLRs can block LR elongation drastically and specifically. Furthermore DNQX mediated LR elongation inhibition is reversed by L-Glu.

LR primordia = assay: Microscopic analysis of LR primordia (LRP) formation and elongation; type: in vivo, Arabidopsis thaliana; details: 400 μM DNQX vs DMSO control
Excerpt: B. DMSO control had fully emerged LR and more LRPs Arrows indicate an LRP that is inhibited, (A) or a fully emerged LR, (B).
as §1

DR5::GUS = assay: Histochemical GUS assay in auxin responsive reporter DR5::GUS seedlings; type: in vivo, Arabidopsis thaliana
Experimental: DR5::GUS reporter was grown for 10 days and subjected to histochemical GUS staining for 10 hrs. The development of blue color indicates the detection of the presence of auxins that function in the regulation and formation of lateral roots
To assess the role of auxins in the AtGLR response, the effect of DNQX on auxin levels were evaluated. Auxin responsive reporter plants carrying the expression system DR5::GUS were used in the histochemical assays. […] Similar results were reported in phosphate starvation studies (Nacry et al. 2005 Plant Physiol. 138:2061).

[2] = test system: L-Glu induced ion channel activity in plants; details: Mayerhoff et al. 2005. Planta. 222:418; cited from earlier work

O=c1[nH]c2cc([N+](=O)[O-])c([N+](=O)[O-])cc2[nH]c1=O [DNQX, 6,7 dinitroquinoxaline-2-3-[1H,4H]-dione]
PR and LR growth and elongation ([1]; DNQX at 400 μM, DMSO control, plates with 10 μM KNO3): inhibit PR and LR elongation; also recorded: inhibit LR growth and elongation | Reversal of DNQX mediated inhibition by coincubation with L-Glu ([1]; coincubation with 10 mM L-glutamate): restored to normal growth; also recorded: can be reversed | Reversibility of DNQX mediated PR and LR inhibition ([1]; seedlings transferred to a media without DNQX): restored to normal growth; also recorded: reversibly and temporarily | Further elongation of LR primordia (LR primordia): further elongation of primordia is inhibited; also recorded: inhibits number of LRP formed and their elongation | Number of LRP formed (LR primordia initiation) (LR primordia): reduced the number of LR primordia initiation; also recorded: inhibits number of LRP formed | Auxin levels in PR and LR apex/primordia (DR5::GUS expression) (DR5::GUS; 400 μM DNQX, grown 10 days, GUS staining for 10 hrs, vs control plants): higher levels of auxins in PR and LR primordia; also recorded: hyper accumulation of auxins | LR and PR elongation of DR5::GUS seedlings (DR5::GUS; incubated with 400 μM DNQX): inhibition of LR and PR elongation | L-Glu induced ion channel activity in plants [2]: block L-Glu induced ion channel activity

Source: patent US8889950B2, “Repression of AtGLR3.2 increases plant biomass” (The George Washington University, priority 2006, dated 2014)
